The target in series [1] is T1, Tyrosine-protein kinase BTK (Homo sapiens, UniProt Q06187). Nature of the series: Inhibition of recombinant full-length human N-terminal GST-fused BTK (2 to 659 residues) expressed in baculovirus expression system at 1 uM using biotin-labelled peptide as substrate measured after 50 mins by TR-FRET assay relative to control. In general terms: Time-resolved FRET reads energy transfer from a long-lived donor to a nearby acceptor.

The test system of a further series is Ramos. The experiment in a line: Antiproliferative activity against human Ramos cells after 48 hrs by CCK8 assay. The class given is functional, cell-based. (In general: Formazan colour is commonly taken as a measure of viable cells.)
For series [2], the target named is T1, Tyrosine-protein kinase BTK. Nature of the series: Inhibition of recombinant full-length human N-terminal GST-fused BTK (2 to 659 residues) expressed in baculovirus expression system using biotin-labelled peptide as substrate measured after 50 mins by TR-FRET assay.
For the next series, the system named is Raji. The experiment in a line: Antiproliferative activity against human Raji cells after 48 hrs by CCK8 assay. It counts as functional, cell-based.
The test system of a further series is PBMC. The experiment in a line: Cytotoxicity against human PBMC after 72 hrs by CellTiter-Glo luminescent cell viability assay. The class given is cell-based.
In a further series the test system is SU-DHL-6. The experiment in a line: Antiproliferative activity against human SU-DHL6 cells after 72 hrs by CellTiter-Glo luminescent cell viability assay. The class given is functional, cell-based. Conditions: SU-DHL-6, 72 h. For orientation: Cellular ATP, detected with luciferase, serves as a proxy for viable cell number.
Series [3] can be described thus: Antiproliferative activity against human WSU-DLCL2 cells after 72 hrs by CellTiter-Glo luminescent cell viability assay. It counts as functional, cell-based. Conditions: WSUDLCL2, 72 h.
Series [4] in a line: Antiproliferative activity against human Mino cells after 72 hrs by CellTiter-Glo luminescent cell viability assay. The class given is functional, cell-based.
The next series concerns DOHH-2. Nature of the series: Antiproliferative activity against human DOHH2 cells after 72 hrs by CellTiter-Glo luminescent cell viability assay. The class given is functional, cell-based. Conditions: DOHH-2, 72 h.
The nature of series [5]: Cytotoxicity against human PBMC assessed as inhibition of cell proliferation at 30 uM after 72 hrs by CellTiter-Glo luminescent cell viability assay relative to control. The following applies: PBMC (peripheral blood mononuclear cells). It counts as cell-based.

By inhibition is commonly meant the drop in the measured response relative to a control, in per cent. One may read the IC50 as the midpoint of a concentration-inhibition curve.

Structures are written as SMILES.

T1 sequence (Q06187 whole entry, the tested form may be a part): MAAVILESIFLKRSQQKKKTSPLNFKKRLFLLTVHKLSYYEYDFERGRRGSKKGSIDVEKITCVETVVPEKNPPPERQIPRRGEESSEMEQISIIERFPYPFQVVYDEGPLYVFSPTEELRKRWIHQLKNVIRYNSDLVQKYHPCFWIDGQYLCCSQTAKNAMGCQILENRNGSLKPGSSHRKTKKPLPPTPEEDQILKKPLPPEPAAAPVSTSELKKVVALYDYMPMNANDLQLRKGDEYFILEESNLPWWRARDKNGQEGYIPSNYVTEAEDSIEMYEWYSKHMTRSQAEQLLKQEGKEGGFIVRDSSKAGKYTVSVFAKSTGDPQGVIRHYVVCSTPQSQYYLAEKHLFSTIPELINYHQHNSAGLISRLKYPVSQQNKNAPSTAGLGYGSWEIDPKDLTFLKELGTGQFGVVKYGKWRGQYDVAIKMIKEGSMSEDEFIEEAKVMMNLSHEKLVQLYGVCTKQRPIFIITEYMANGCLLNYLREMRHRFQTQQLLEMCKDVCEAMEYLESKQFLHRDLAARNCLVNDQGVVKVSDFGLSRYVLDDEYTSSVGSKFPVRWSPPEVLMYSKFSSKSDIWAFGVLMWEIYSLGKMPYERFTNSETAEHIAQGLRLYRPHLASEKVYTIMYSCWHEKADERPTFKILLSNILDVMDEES

Turning to `C=C(F)C(=O)N1CCC[C@@H](n2nc(C#CCOc3ccccc3)c3c(N)ncnc32)C1`, the inhibition in [1] turned out to be 73.8%.
For the molecule `CC(C)/C=C(\C#N)C(=O)N1CCC[C@@H](n2nc(C#CCOc3ccccc3)c3c(N)ncnc32)C1`, the values for the IC50 (with Ramos; in series [2]; with Raji) were more than 40000 nM, 9.7 nM and more than 40000 nM, respectively. Moreover, the inhibition in [1] stood at 99.6%.
In the case of `Nc1ncnc2c1c(C#CCOc1ccccc1)nn2[C@@H]1CCCN(C(=O)/C=C/Cn2cncn2)C1`, the inhibition in series [1] was found to be 76.3%.
As to `C=CC(=O)N1CCC[C@H]1Cn1nc(C#CCOc2ccccc2)c2c(N)ncnc21`, in series [1], the inhibition stood at 42.9%.
In the case of `C#CC(=O)N1CCC[C@@H](n2nc(C#CCOc3ccccc3)c3c(N)ncnc32)C1`, the half-maximal inhibitory concentration (IC50) in the series on Ramos turned out to be 9940 nM; in the series on PBMC, 4120 nM; in the series with SU-DHL-6 it was 26.6 nM; in [3], 14.1 nM; in [2], 11.1 nM; in [4] it was 67.9 nM. Further, the IC50 was found to be 2370 nM with Raji and 12.8 nM in the series with DOHH-2. Moreover, in series [1], the inhibition is 102%.
With `Nc1ncnc2c1c(C#CCOc1ccccc1)nn2[C@@H]1CCCN(C(=O)/C=C/CN2CCOCC2)C1`, the inhibition in [1] came to 86.1%.
In the case of `C=CC(=O)N1CC[C@@H](n2nc(C#CCOc3ccccc3)c3c(N)ncnc32)C1`, in series [1], the inhibition worked out at 96.1%. Also, the IC50 in series [2] turned out to be 18.8 nM.
As for `C=CC(=O)N1CCC[C@@H](n2nc(C#CCOc3ccccc3)c3c(N)ncnc32)C1`, the IC50 was more than 30000 nM in the series with PBMC; 1630 nM in the series with SU-DHL-6; 395 nM in series [3]; 3730 nM in series [4]; 18.1 nM in the series on DOHH-2.
Take `C=CC(=O)NCCn1nc(C#CCOc2ccccc2)c2c(N)ncnc21`: in series [1], the inhibition came to 27.1%.
On to `C=CC(=O)N[C@H]1CC[C@@H](n2nc(C#CCOc3ccccc3)c3c(N)ncnc32)CC1`, for which the inhibition in series [1] is 101%. Also, the IC50 in series [2] came to 14.8 nM.
With `C=CS(=O)(=O)N1CCC[C@@H](n2nc(C#CCOc3ccccc3)c3c(N)ncnc32)C1`, the IC50 is more than 40000 nM in the series with Ramos, 4.2 nM in [2] and more than 40000 nM in the series on Raji. The inhibition in series [1] was 104%.
On to `Nc1ncnc2c1c(C#CCOc1ccccc1)nn2[C@@H]1CCCN(C(=O)/C=C/CBr)C1`, for which the inhibition in [1] is 92.2%. The half-maximal inhibitory concentration (IC50) in series [2] came to 13.2 nM.
On to `C=CC(=O)N1CCC[C@@H](n2nc(-c3ccc(Oc4ccccc4)cc3)c3c(N)ncnc32)C1` [IBRUTINIB], for which the inhibition at 72 h, 30 µM in series [5] came to 69%. Further, the IC50 was determined as 874 nM in the series with SU-DHL-6, 487 nM in [3], 3150 nM in [4] and 33.4 nM with DOHH-2.
Take `C=CC(=O)N(C)CCn1nc(C#CCOc2ccccc2)c2c(N)ncnc21`: the inhibition in series [1] was determined as 48.5%.
On to `C/C=C(\C#N)C(=O)N1CCC[C@@H](n2nc(C#CCOc3ccccc3)c3c(N)ncnc32)C1`, for which the IC50 in the series on Ramos is 25800 nM; in series [2] it was 7.8 nM; in the series with Raji it was 17600 nM. Also, the inhibition in series [1] came out at 98.5%.
Turning to `N#C/C(=C\C1CC1)C(=O)N1CCC[C@@H](n2nc(C#CCOc3ccccc3)c3c(N)ncnc32)C1`, the concentration for half-maximal inhibition (IC50) is 9060 nM in the series with Ramos; more than 30000 nM in the series on PBMC; more than 10000 nM in the series with SU-DHL-6; more than 10000 nM in series [3]; 11.1 nM in series [2]; 8850 nM in [4]. Further, the results for the IC50 with Raji and with DOHH-2 were 2090 nM and more than 10000 nM, respectively. Moreover, the inhibition in series [1] came to 97.1%.
Turning to `CC#CC(=O)N1CCC[C@@H](n2nc(C#CCOc3ccccc3)c3c(N)ncnc32)C1`, the inhibition in series [1] was 99.7%. Further, the IC50 in series [2] is 28.3 nM.

(Values after ChEMBL document CHEMBL4371038, “Synthesis and biological evaluation of novel 1-substituted 3-(3-phenoxyprop-1-yn-1-yl)-1H-pyrazolo[3,4-d]pyrimidin-4-amines as potent Bruton's tyrosine kinase (BTK) inhibitors” (Bioorg Med Chem Lett, 2019).)
